In BigSolDB 2.1:

O=C(O)CC(S)C(=O)O (stereo not drawn)
solubility (mole fraction) (in acetone, 278.15 K): 0.133
solubility (mole fraction) (in acetone, 283.15 K): 0.142
solubility (mole fraction) (in acetone, 288.15 K): 0.149
solubility (mole fraction) (in acetone, 293.15 K): 0.159
solubility (mole fraction) (in acetone, 298.15 K): 0.168
solubility (mole fraction) (in acetone, 303.15 K): 0.178
solubility (mole fraction) (in acetone, 308.15 K): 0.19
solubility (mole fraction) (in acetone, 313.15 K): 0.202
solubility (mole fraction) (in acetone, 318.15 K): 0.213
solubility (mole fraction) (in acetone, 323.15 K): 0.226
solubility (mole fraction) (in acetone, 328.15 K): 0.24
solubility (mole fraction) (in acetonitrile, 278.15 K): 0.0114
solubility (mole fraction) (in acetonitrile, 283.15 K): 0.0159
solubility (mole fraction) (in acetonitrile, 288.15 K): 0.0212
solubility (mole fraction) (in acetonitrile, 293.15 K): 0.0296
solubility (mole fraction) (in acetonitrile, 298.15 K): 0.0392
solubility (mole fraction) (in acetonitrile, 303.15 K): 0.0513
solubility (mole fraction) (in acetonitrile, 308.15 K): 0.0656
solubility (mole fraction) (in acetonitrile, 313.15 K): 0.0853
solubility (mole fraction) (in acetonitrile, 318.15 K): 0.108
solubility (mole fraction) (in acetonitrile, 323.15 K): 0.135
solubility (mole fraction) (in acetonitrile, 328.15 K): 0.168
solubility (mole fraction) (in acetonitrile, 333.15 K): 0.206
solubility (mole fraction) (in ethanol, 278.15 K): 0.138
solubility (mole fraction) (in ethanol, 283.15 K): 0.154
solubility (mole fraction) (in ethanol, 288.15 K): 0.169
solubility (mole fraction) (in ethanol, 293.15 K): 0.186
solubility (mole fraction) (in ethanol, 298.15 K): 0.205
solubility (mole fraction) (in ethanol, 303.15 K): 0.224
solubility (mole fraction) (in ethanol, 308.15 K): 0.244
solubility (mole fraction) (in ethanol, 313.15 K): 0.265
solubility (mole fraction) (in ethanol, 318.15 K): 0.287
solubility (mole fraction) (in ethanol, 323.15 K): 0.31
solubility (mole fraction) (in ethanol, 328.15 K): 0.335
solubility (mole fraction) (in ethanol, 333.15 K): 0.361
solubility (mole fraction) (in ethyl acetate, 278.15 K): 0.0454
solubility (mole fraction) (in ethyl acetate, 283.15 K): 0.0482
solubility (mole fraction) (in ethyl acetate, 288.15 K): 0.0515
solubility (mole fraction) (in ethyl acetate, 293.15 K): 0.0547
solubility (mole fraction) (in ethyl acetate, 298.15 K): 0.0595
solubility (mole fraction) (in ethyl acetate, 303.15 K): 0.0634
solubility (mole fraction) (in ethyl acetate, 308.15 K): 0.068
solubility (mole fraction) (in ethyl acetate, 313.15 K): 0.0732
solubility (mole fraction) (in ethyl acetate, 318.15 K): 0.0787
solubility (mole fraction) (in ethyl acetate, 323.15 K): 0.0849
solubility (mole fraction) (in ethyl acetate, 328.15 K): 0.0915
solubility (mole fraction) (in ethyl acetate, 333.15 K): 0.0991
solubility (mole fraction) (in isopropanol, 278.15 K): 0.1
solubility (mole fraction) (in isopropanol, 283.15 K): 0.112
solubility (mole fraction) (in isopropanol, 288.15 K): 0.126
solubility (mole fraction) (in isopropanol, 293.15 K): 0.141
solubility (mole fraction) (in isopropanol, 298.15 K): 0.156
solubility (mole fraction) (in isopropanol, 303.15 K): 0.174
solubility (mole fraction) (in isopropanol, 308.15 K): 0.192
solubility (mole fraction) (in isopropanol, 313.15 K): 0.212
solubility (mole fraction) (in isopropanol, 318.15 K): 0.233
solubility (mole fraction) (in isopropanol, 323.15 K): 0.256
solubility (mole fraction) (in isopropanol, 328.15 K): 0.28
solubility (mole fraction) (in isopropanol, 333.15 K): 0.305
solubility (mole fraction) (in methanol, 278.15 K): 0.117
solubility (mole fraction) (in methanol, 283.15 K): 0.136
solubility (mole fraction) (in methanol, 288.15 K): 0.157
solubility (mole fraction) (in methanol, 293.15 K): 0.178
solubility (mole fraction) (in methanol, 298.15 K): 0.203
solubility (mole fraction) (in methanol, 303.15 K): 0.228
solubility (mole fraction) (in methanol, 308.15 K): 0.256
solubility (mole fraction) (in methanol, 313.15 K): 0.285
solubility (mole fraction) (in methanol, 318.15 K): 0.314
solubility (mole fraction) (in methanol, 323.15 K): 0.345
solubility (mole fraction) (in methanol, 328.15 K): 0.379
solubility (mole fraction) (in methanol, 333.15 K): 0.412
solubility (mole fraction) (in n-butanol, 278.15 K): 0.0909
solubility (mole fraction) (in n-butanol, 283.15 K): 0.105
solubility (mole fraction) (in n-butanol, 288.15 K): 0.118
solubility (mole fraction) (in n-butanol, 293.15 K): 0.134
solubility (mole fraction) (in n-butanol, 298.15 K): 0.153
solubility (mole fraction) (in n-butanol, 303.15 K): 0.172
solubility (mole fraction) (in n-butanol, 308.15 K): 0.192
solubility (mole fraction) (in n-butanol, 313.15 K): 0.213
solubility (mole fraction) (in n-butanol, 318.15 K): 0.236
solubility (mole fraction) (in n-butanol, 323.15 K): 0.261
solubility (mole fraction) (in n-butanol, 328.15 K): 0.286
solubility (mole fraction) (in n-butanol, 333.15 K): 0.313
